These results are taken from patent US20250230193A1, “CYCLIC COMPOUND HAVING SELECTIVE KRAS INHIBITORY EFFECT ON HRAS AND NRAS” (CHUGAI SEIYAKU KABUSHIKI KAISHA, priority 2022, published 2025).

Assay [1] addresses GDP-bound HRAS wild-type protein (Homo sapiens, UniProt P01112). The experiment in a line: Binding to HRAS by surface plasmon resonance (SPR), Single Cycle Kinetics. As to conditions: SPR; KD ratio class. A general note: In SPR one partner is held on a chip, and binding of the other changes the refractive index at the surface.
Assay [2] concerns the target GDP-bound NRAS wild-type protein (Homo sapiens, UniProt P01111). The assay is described as follows: Binding to NRAS by surface plasmon resonance (SPR), Single Cycle Kinetics. As to conditions: SPR; KD ratio class.

Sequence of GDP-bound HRAS wild-type protein (P01112 whole entry): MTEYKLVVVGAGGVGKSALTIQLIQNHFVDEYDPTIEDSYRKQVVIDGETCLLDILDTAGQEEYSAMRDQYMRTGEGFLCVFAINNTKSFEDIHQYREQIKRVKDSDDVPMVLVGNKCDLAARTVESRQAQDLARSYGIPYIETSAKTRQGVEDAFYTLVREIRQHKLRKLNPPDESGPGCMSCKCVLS
Sequence of GDP-bound NRAS wild-type protein (P01111 whole entry): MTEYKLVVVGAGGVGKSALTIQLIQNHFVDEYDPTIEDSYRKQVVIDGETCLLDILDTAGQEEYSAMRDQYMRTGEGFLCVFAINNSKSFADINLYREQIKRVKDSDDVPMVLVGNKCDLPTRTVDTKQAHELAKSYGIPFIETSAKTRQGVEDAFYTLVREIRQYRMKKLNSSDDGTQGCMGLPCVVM

Turning to `CCO[C@@H]1C[C@H]2C(=O)NC3(CCC3)C(=O)N(C)[C@@H](C3CCCC3)C(=O)N(C)[C@H](C(=O)N(C)CC)CC(=O)N(C)[C@@H](CC3CC3)C(=O)N[C@@H]([C@@H](C)CC)C(=O)N(C)CC(=O)N(C)[C@H]3C/C=C\CCN(C3=O)[C@@H](Cc3ccc(C(F)(F)F)cc3)C(=O)N(C)CC(=O)N[C@@H](CCc3cc(F)c(C(F)(F)F)c(F)c3)C(=O)N2C1` [PP1301], the “HRAS/KRAS (ratio of KD value for GDP-bound HRAS wild-type protein to KD value for KRAS)” value in assay [1] was “A (a compound having 10 or more and less than 20 is denoted as A)”. In assay [2], the “NRAS/KRAS (ratio of KD value for GDP-bound NRAS wild-type protein to KD value for KRAS)” value is “A (a compound having 10 or more and less than 20 is denoted as A)”.
As to `CCO[C@@H]1C[C@H]2C(=O)NC3(CCC3)C(=O)N(C)[C@@H](C3CCCC3)C(=O)N(C)[C@H](C(=O)N(C)CC)CC(=O)N(C)[C@@H](C)C(=O)N[C@@H]([C@@H](C)CC)C(=O)N(C)CC(=O)N(C)[C@H]3C/C=C\CCN(C3=O)[C@@H](Cc3ccc(C(F)(F)F)cc3)C(=O)N(C)CC(=O)N[C@@H](CCc3cc(F)c(C(F)(F)F)c(F)c3)C(=O)N2C1` [PP1302], the “HRAS/KRAS (ratio of KD value for GDP-bound HRAS wild-type protein to KD value for KRAS)” value in assay [1] was “A (a compound having 10 or more and less than 20 is denoted as A)”. In assay [2], the “NRAS/KRAS (ratio of KD value for GDP-bound NRAS wild-type protein to KD value for KRAS)” value is “A (a compound having 10 or more and less than 20 is denoted as A)”.
Turning to `CCO[C@@H]1C[C@H]2C(=O)NC3(CCC3)C(=O)N(C)[C@@H](C3CCCC3)C(=O)N(C)[C@H](C(=O)N(C)CC)CC(=O)N(C)[C@@H](CC(F)F)C(=O)N[C@@H]([C@@H](C)CC)C(=O)N(C)CC(=O)N(C)[C@H]3C/C=C\CCN(C3=O)[C@@H](Cc3ccc(C(F)(F)F)cc3)C(=O)N(C)CC(=O)N[C@@H](CCc3cc(F)c(C(F)(F)F)c(F)c3)C(=O)N2C1` [PP1303], in assay [1], the “HRAS/KRAS (ratio of KD value for GDP-bound HRAS wild-type protein to KD value for KRAS)” value was “A (a compound having 10 or more and less than 20 is denoted as A)”. In addition, the “NRAS/KRAS (ratio of KD value for GDP-bound NRAS wild-type protein to KD value for KRAS)” value in assay [2] was “AA (a compound having 20 or more is denoted as AA)”.
Take `CCC[C@H]1C(=O)N[C@@H]([C@@H](C)CC)C(=O)N(C)CC(=O)N(C)[C@H]2C/C=C\CCN(C2=O)[C@@H](Cc2ccc(C(F)(F)F)cc2)C(=O)N(C)CC(=O)N[C@@H](CCc2cc(F)c(C(F)(F)F)c(F)c2)C(=O)N2C[C@H](OCC)C[C@H]2C(=O)NC2(CCC2)C(=O)N(C)[C@@H](C2CCCC2)C(=O)N(C)[C@H](C(=O)N(C)CC)CC(=O)N1C` [PP1304]: the “HRAS/KRAS (ratio of KD value for GDP-bound HRAS wild-type protein to KD value for KRAS)” value in assay [1] was “A (a compound having 10 or more and less than 20 is denoted as A)”. Also, the “NRAS/KRAS (ratio of KD value for GDP-bound NRAS wild-type protein to KD value for KRAS)” value in assay [2] is “A (a compound having 10 or more and less than 20 is denoted as A)”.
For the compound `CCO[C@@H]1C[C@H]2C(=O)NC3(CCC3)C(=O)N(C)[C@@H](C3CCCC3)C(=O)N(C)[C@H](C(=O)N(CC)CC)CC(=O)N(C)[C@@H](CC)C(=O)N[C@@H]([C@@H](C)CC)C(=O)N(C)CC(=O)N(C)[C@H]3C/C=C\CCN(C3=O)[C@@H](Cc3ccc(C(F)(F)F)cc3)C(=O)N(C)CC(=O)N[C@@H](CCc3cc(F)c(C(F)(F)F)c(F)c3)C(=O)N2C1` [PP1305], the “HRAS/KRAS (ratio of KD value for GDP-bound HRAS wild-type protein to KD value for KRAS)” value in assay [1] is “A (a compound having 10 or more and less than 20 is denoted as A)”. Moreover, in assay [2], the “NRAS/KRAS (ratio of KD value for GDP-bound NRAS wild-type protein to KD value for KRAS)” value is given as “AA (a compound having 20 or more is denoted as AA)”.
Consider `CCO[C@@H]1C[C@H]2C(=O)NC3(CCC3)C(=O)N(C)[C@@H](C3CCCC3)C(=O)N(C)[C@H](C(=O)N(CC)CC)CC(=O)N(C)[C@@H](CC(C)C)C(=O)N[C@@H]([C@@H](C)CC)C(=O)N(C)CC(=O)N(C)[C@H]3C/C=C\CCN(C3=O)[C@@H](Cc3ccc(C(F)(F)F)cc3)C(=O)N(C)CC(=O)N[C@@H](CCc3cc(F)c(C(F)(F)F)c(F)c3)C(=O)N2C1` [PP1306], for which, in assay [1], the “HRAS/KRAS (ratio of KD value for GDP-bound HRAS wild-type protein to KD value for KRAS)” value was “A (a compound having 10 or more and less than 20 is denoted as A)”. The “NRAS/KRAS (ratio of KD value for GDP-bound NRAS wild-type protein to KD value for KRAS)” value in assay [2] is given as “AA (a compound having 20 or more is denoted as AA)”.
